Measured values as given in patent US7977379B2, “Method for angiogenesis inhibition or immunostimulation” (priority 2002, dated 2011).

Experiments:
[1] = tested on: angiogenesis induced by means of MATRIGEL matrix (heparin, a-FGF); assay: Test Example 1: angiogenesis induced by […] matrix transplanted subcutaneously (method of Passaniti et al); format: in vivo, C57BL/6 female mice; conditions: for angiogenesis inhibition effect (in words): MATRIGEL weight and hemoglobin vs control group; for MATRIGEL Matrix weight / Quantity of hemoglobin: sixth day, n=5, mean±SE; for MATRIGEL Matrix weight: freeze-dried
Description: Angiogenesis inhibition action of anhydrous glutamic acid, its derivatives, and various processed materials containing them concerning the present invention was examined by degree of angiogenesis induced by means of […]™ matrix (made by Becton Dikinson Labware Company, it is “cell culture backing material”, following “[…]”.) according to a method of Passaniti et al (Laboratory Invest., Vol. 67, Page 519-528, 1992).
An example of the […] matrix is shown with the following: BD Matrigel Basement Membrane Matrix is a solubilized basement membrane preparation extracted from the Engelbreth-Holm-Swarm (EHS) mouse sarcoma, a tumor rich in ECM proteins. Its major component is laminin, followed by collagen IV, heparan sulfate proteoglycans, entactin and nidogen.35 It also contains TGF-β fibroblast growth factor, tissue plasminogen activator36 and other growth factors which occur naturally in the EHS tumor. At room temperature, BD Matrigel Matrix polymerizes to produce biologically active matrix material resembling the mammalian cellular basement membrane.
More specifically, normal mice (5 mice/1 group) were used after breeding C57BL/6 female mice (5 week old, purchased from Charles River JAPAN, Inc.) preliminarily for one week. While cooling test materials as shown in the following, each of the test materials 0.5 ml were transplanted to subcutaneous of abdomen of the mice. […] was taken out on the sixth day after transplantation, and state of angiogenesis was observed. In addition, the […] was freeze-dried, and it was estimated the weight. Furthermore, pure water 1 ml was added to the […]. After homogenizing by Polytron and centrifuging at 2000 rpm for five minutes, supernatant was filtrated through filter with 0.2 μm and hemoglobin dosage was measured by using Hemoglobin-TestWako™ (made by Wako Pure Chemical Industries, Ltd.).
Group 0 of nothing addition: […]
Control group: […], heparin (64 units), Acidic Fibroblast Growth Factor (it is abbreviated to a-FGF as follows.) (1 ng/ml)
Group 1 of test material addition: […], heparin (64 units), a-FGF (1 ng/ml), sample 3 (800 μg/ml)
Group 2 of test material addition: […], heparin (64 units), a-FGF (1 ng/ml), sample 3 (400 μg/ml)
Group 3 of test material addition: […], heparin (64 units), a-FGF (1 ng/ml), sample 3 (200 μg/ml)
Group 4 of test material addition: […], heparin (64 units), a-FGF (1 ng/ml), sample 4 (800 μg/ml)
Group 5 of test material addition: […], heparin (64 units), a-FGF (1 ng/ml), sample 1 (600 μg/ml)
Group 6 of test material addition: […], heparin (64 units), a-FGF (1 ng/ml), sample 2 (800 μg/ml)
Group 7 of test material addition: […], heparin (64 units), a-FGF (1 ng/ml), sample1+sample 3 (for each 200 μg/ml)
Group 8 of test material addition: […], heparin (64 units), a-FGF (1 ng/ml), sample 5 (600 μg/ml)
Group 9 of test material addition: […], heparin (64 units), a-FGF (1 ng/ml), reference sample 1 (800 μg/ml)
As is apparent from each table, in control group, angiogenesis was promoted remarkably and weight of […] and hemoglobin dosage were increased compared with a group 0 of nothing addition. […] However, the angiogenesis inhibition effect was small with reference sample 1 (hot water extract of an agaricus mushroom).

[2] = tested on: angiogenesis induced by means of MATRIGEL matrix (heparin, a-FGF); assay: Test Example 4: angiogenesis induced by […] matrix (same method as test example 1); format: in vivo, C57BL/6 female mice; conditions: for angiogenesis inhibition effect (in words): MATRIGEL weight and hemoglobin vs control group; for MATRIGEL weight / Quantity of hemoglobin: sixth day, n=5, mean±SE
Description: More specifically, normal mice (5 mice/1 group) were used after breeding C57BL/6 female mice (5 week old, purchased from Charles River JAPAN, Inc.) preliminarily for one week. While cooling test materials as shown in the following, each of the test materials 0.5 ml were transplanted to subcutaneous of abdomen of the mice. […] was taken out on the sixth day after transplantation, and state of angiogenesis was observed. In addition, the […] was freeze-dried, and it was weighed. […] Group 0 of nothing addition: […]

[3] = material 800 μg/mL in MATRIGEL with heparin and a-FGF
[4] = material 200 μg/mL in MATRIGEL with heparin and a-FGF
[5] = material 400 μg/mL in MATRIGEL with heparin and a-FGF

Cl.NC(CCC(=O)O)C(=O)O (racemic) [sample 4, anhydrous DL-glutamate acid hydrochloride]
angiogenesis inhibition effect (in words) [1]: slightly low, but almost equal to sample 3
MATRIGEL Matrix weight [1, 3]: 237.3 ± 30.1 mg
Quantity of hemoglobin [1, 3]: 13.0 ± 2.9 mg

O=C1CCC(C(=O)O)N1.[Na] (racemic) [sample 9, DL-pyroglutamic acid sodium]
angiogenesis inhibition effect (in words) [2]: slightly low, but almost equal to sample 8
MATRIGEL weight [2, 3]: 209.0 ± 30.8 mg
Quantity of hemoglobin [2, 3]: 15.8 ± 2.7 mg/MATRIGEL

C[C@H](N)C(=O)O [alanine, reference compound]
angiogenesis inhibition effect (in words) [2]: not recognized

O=C(O)[C@@H]1CCCN1 [proline, reference compound]
angiogenesis inhibition effect (in words) [2]: not recognized

Cl.N[C@@H](CCC(=O)O)C(=O)O [sample 3, anhydrous L-glutamate acid hydrochloride]
angiogenesis inhibition effect (in words) [1]: excellent angiogenesis inhibition effect
MATRIGEL Matrix weight [1, 4]: 276.6 ± 27.6 mg
Quantity of hemoglobin [1, 4]: 21.5 ± 4.0 mg
MATRIGEL Matrix weight [1, 5]: 232.2 ± 52.7 mg
Quantity of hemoglobin [1, 5]: 15.5 ± 4.6 mg
MATRIGEL Matrix weight [1, 3]: 110.9 ± 11.4 mg
Quantity of hemoglobin [1, 3]: 3.9 ± 0.5 mg

O=C1CC[C@@H](C(=O)O)N1.[Na] [sample 8, L-pyroglutamic acid sodium]
angiogenesis inhibition effect (in words) [2]: excellent angiogenesis inhibition effect
MATRIGEL weight [2, 4]: 265.3 ± 18.6 mg
Quantity of hemoglobin [2, 4]: 23.4 ± 2.0 mg/MATRIGEL
MATRIGEL weight [2, 5]: 190.2 ± 30.4 mg
Quantity of hemoglobin [2, 5]: 17.5 ± 3.6 mg/MATRIGEL
MATRIGEL weight [2, 3]: 121.5 ± 28.1 mg
Quantity of hemoglobin [2, 3]: 4.8 ± 1.2 mg/MATRIGEL
